Data from patent US11542476B2, “Advanced pulmonary models” (EMULATE, INC., priority 2017, dated 2023).
Entries after “also recorded” stand apart in the source; their conditions may differ.

Experiments:
[1] = system: host cells of Airway On-Chip; test: TUNEL apoptosis staining on Airway On-Chip; format: cell-based, human; settings: 3 μM for 3 h at 37° C.; positive control
Procedure: One embodiment of an Airway On-Chip was infected as described above for 2 hours and then treated 50 μg/ml tetracycline for 24 h (top and bottom channels under flow) for 24 h in order to limit bacterial replication (to avoid over-replication and cell lifting). Using this methodology, we performed longer infections on an airway chip and avoided cell death at 24 h. At 24 h, chips were fixed with 4% paraformaldehyde for 15 minutes and subsequently permeabilized with 0.25% triton in PBS. Apoptosis staining was performed following the Click-iT™ Plus TUNEL Assay for In Situ Apoptosis Detection, Alexa Fluor 647 assay: Click-iT™ Plus TUNEL Assay, Thermo Fisher Scientific Inc., 6 Nov. 2017.
The TUNEL assay is based on the incorporation of modified dUTPs by the enzyme terminal deoxynucleotidyl transferase (TdT) at the 3′-OH ends of fragmented DNA, a hallmark as well as the ultimate determinate of apoptosis. ClickiT™ Plus TUNEL assay with the Alexa Fluor™ 647 dye was utilized to detect the fragment DNA (purple), nuclei were labelled with DAPI.
Staurosporin, a prototypical ATP-competitive kinase inhibitor, was used as a positive control in this assay. […] As an additional positive control, chips were treated with 1 unit of DNAse I for 30 minutes at room temperature to induce TUNEL positive DNA strand breaks.

HRV-16 = HRV-16 one step growth curves in infected Airway chips treated with IL-13 or not; format: cell-based, human rhinovirus 16; settings: HRV-16 MOI=2
Procedure: An exemplary virus, Human rhinovirus 16 (HRV16: A16 or type 16, referring to a single stranded RNA virus), in capsid form, was added at a multiplicity of infection of 2 to the upper channel and incubated at 33° C. for 3 hours. Infected chips (n=3) were washed apically (upper channel) daily and replicating virus in the wash fluid was quantified. HRV16 Titer (Log 10 TCID 50/mL) vs time post infection (hours). TCID50 refers to a tissue culture infectious dose, which will infect 50% if the cells in a monolayer challenged with the viral inoculum.

Human Airway Epithelium = test: Cilia beating frequency on-chip; format: cell-based; settings: IL-13 stimulation
human neutrophil [2] = test: Neutrophil recruitment/attachment in Airway-on-Chip model of acute asthma exacerbation (HRV-16 infection, IL-13 stimulation); format: cell-based
Procedure: In this embodiment, an exemplary respiratory virus, e.g., Rhinovirus, was added to the upper channel of the chip, IL-13 was used to stimulate cells, and neutrophils were added to the lower channel, see, FIG. 14A.
See, FIG. 14B and FIG. 14C.
HRV-16 is represented as small green dots in the upper channel while neutrophil cells (also described as polymorphonuclear leukocytes (PMN)) are represented as large purple spots in the lower channel. […] Treatments included HRV-16 alone infected cells, IL-13 alone treated cells, HRV-16 and (+) IL-13 treated cells, HRV-16+CXCR2in (inhibitor) treated cells, and HRV-16+IL-13+CXCR2in. […] FIG. 14C is a graphical comparison showing PMN (neutrophil) cells counts as % of untreated cells and cells treated with combinations shown for IL-13, HRV, and CXCR2 (in) treatments. Quantification of neutrophil recruitment (** p<0.01; **** p<0.001).

goblet cells = test: IL-13 induced goblet cell hyperplasia in Airway-on-Chip (MUC5AC staining); format: cell-based, human
From the text: As an exemplary immuno-modulatory compound, addition of IL-13 to an Airway-on-Chip induced changes in epithelial cell layers in the upper channel with an air interface and endothelial cells in the lower channel under media fluid flow conditions are shown. It was discovered that IL-13 added to this embodiment of Airway-on-Chip effects both the epithelial cell layer in the upper channel with an air interface and the endothelial cells in the lower channel under media flow conditions. FIG. 9A is a schematic illustration showing IL-13 in the context of an Airway-on-Chip, where IL-13 effects both epithelial cells in the upper channel with an air interface and endothelial cells in the lower channel under flow (left). […] IL-13 is added to the endothelial channel at an exemplary 100 ng/ml for an exemplary 7 days.
This hyperplasia effect can be inhibited by Tofacitinib, an inhibitor of the JAK/STAT pathway (Janus Kinase (JAK) and Signal Transducer and Activator of Transcription (STAT)).
Creation of a Th2 microenvironment through IL-13 stimulation induces an asthma-like phenotype in the Airway Chip. Exacerbation is then triggered by infecting with human rhinovirus 16. […]

[3] = system: IFN-λ1, IP-10/CXCL10, IL-6 secretion; test: Interferon, chemokine and cytokine secretion after HRV16 infection of Airway Chips; format: cell-based, human
From the text: HRV-16-induced interferons, chemokines and pro-inflammatory cytokines profile is altered by IL-13 treatment in the severe asthma chip as shown by high resolution, kinetic profiles of cytokine secretion. These graphs (FIG. 17A-C) show results using a method for identifying secretory phases (i.e. I, II, III, and IV) of essential inflammatory cytokines.
FIG. 17A-C HRV-16-induced interferons, chemokines and pro-inflammatory cytokines profile is altered by IL-13 treatment in one embodiment of a severe asthma on-chip. These exemplary graphs show results from high resolution, kinetic profiles of an IFN Lambda 1 response FIG. 17A; IP-10/CXCL10 FIG. 17B; IL-6 response FIG. 17C; following HRV16 infection. A severe asthma on-chip was stimulated with IL-13 (lower red line and squares) while a duplicate chip was not stimulated with IL-13 (upper blue line and circles). IL-13 treatment was over 72 hours post infection. Data represent mean±SEM of cells from three to four different donors, with one or two biological replicates (chips) per donor.
Charts show IFN-λ1 (pg/mL) and IP-10/CXCL10 (pg/mL) measured in apical and basal secretions collected at 24, 48 and 72 h post HRV16 infection comparing control, IL-13 alone, HRV-16 alone and combined treatments.
Thus, IL-13 may delay or prevent IL-6-driven resolution of HRV-induced inflammation. Charts (i.e. readouts) show IL-6 (pg/mL) and IL-8 (pg/mL) measured in apical and basal secretions collected at 24, 48 and 72 h post HRV16 infection comparing control, IL-13 alone, HRV-16 alone and combined treatments.

endothelial cells = test: IL-13 effects on endothelial cells of Airway-on-Chip (adhesion molecule gene and protein expression); format: cell-based, human
From the text: Induced gene expression for adhesion molecules was also observed after IL-13 treatment, FIG. 9C. Examples of IL-13 induced Selectins (P and E) and ICAM-1 (Intercellular Adhesion Molecule 1) and VCAM-1 (vascular cell adhesion molecule-1). Doerr, “The condition-dependent proteome.” Nat Methods. 2016 Febuary; 13(2):117.
Other compounds tested included Interleukin alpha (IL1A), Interleukin beta (IL1B), Interleukin-6 (IL6), Interleukin-8 (IL8), The chemokine (C-C motif) ligand 2 (CCL2), C-C Motif Chemokine Receptor 4 (CCR4), Protein Tyrosine Phosphatase, Receptor Type C (PTPRC), Intercellular Adhesion Molecule 1 (ICAM1), Selectin P (SELP), Selectin E (SELE), Prostaglandin-Endoperoxide Synthase 2 (PTGS2), Transforming Growth Factor Beta 1 (TGFB1), SMAD Family Member 7 (SMAD7), Complement C3 (C3), Angiotensin I Converting Enzyme (ACE), cluster of differentiation 34: CD34 antigen: CD34 molecule (CD34) and Nuclear Factor Of Activated T-Cells 4 (NFATC4).
In one embodiment, an asthma phenotype was generated using IL-13 stimulation. This stimulation led to the activation of human endothelium at 48 hours of treatment. IL-13 induces vessel (endothelial cell) wall priming as part of recruitment of immune cells. […] IL-13 100 ng/mL (right panels) vs. no treatment controls (left panels) VE-Cadherin (red), ICAM-1 (green) in the upper panels. VCAM-1 (red) VE-Cadherin (green). […]

human neutrophil [4] = test: Neutrophil adhesion, crawling and trans-migration out of the endothelial channel, HRV-16 infected Airway-on-Chip; format: cell-based; settings: HRV-16 24 hpi
From the text: Once recruited to the endothelium, neutrophil movement can be recorded and extravasation monitored as N (number) of spots vs. time (e.g. up to 300-600 seconds).
Thus, migratory cell potential, as extravasation, is identified in graphs below each of these micrographs, FIG. 15A and FIG. 15B, showing the number of white spots (N spots) counted over time for each treatment. For HRV-16 infection alone, the number of spots decreases as the cells move into the cell layer, see, FIG. 15C. […] Extravasation in general refers to the movement of white blood cells into the tissues surrounding them (e.g. leukocyte extravasation), also known as diapedesis.

P. aeruginosa = format: cell-based, Pseudomonas aeruginosa; settings: lower concentrations
Procedure: Mature small airway chips at air-liquid interface (ALI) were gently washed with PBS to remove excess mucus. Cells were inoculated with 2-3×10^6 colony forming units (CFUs) in Hank's balanced salt solution (HBSS) for 2 hours. At the end of the incubation, the inoculum was removed and the cells were washed 3× with phosphate buffer saline (PBS) to remove any nonadherent bacteria. PBS was removed and cells were incubated at ALI up to 24 hours (h) under flow in the bottom channel but not in the top channel.
After an exemplary on-chip infection protocol, including removing nonadherent bacteria, a test compound was immediately added to the top (apical) and bottom (basal) channels then cells are cultured under flow using media containing the anti-microbial compound, for 24 hours. Exemplary test compound amounts are at least 0.1 μg/ml, up to 50 μg/ml, up to 100 μg/ml, up to 500 μg/ml. In one embodiment, an exemplary test compound is a drug Imipenem.
More specifically, in one embodiment of an Airway on-chip, duplicate chips were infected with PA 5919 WT or PA 5890 Mutant as described herein. Then, Imipenem was added to apical and basolateral fluids (cell media) for treatment with Imipenem at 50, 100 and 500 μg/ml for 24 hours with at least one chip without Imipenem. […] Lysates were serially diluted for CFU quantification. […]
Assay readouts: Viability of extracellular bacteria (apical sampling). […]

## CN[C@@H]1C[C@H]2O[C@@](C)([C@@H]1OC)n1c3ccccc3c3c4c(c5c6ccccc6n2c5c31)C(=O)NC4 [Staurosporin]
[1]
  apoptotic cell numbers (TUNEL): increased apoptotic cell numbers

## IL-13: TH2 cytokine used to stimulate an asthma-like phenotype on-chip
HRV-16
  HRV infectivity (HRV-16 growth): does not alter HRV infectivity
Human Airway Epithelium
  cilia beating frequency: reduces cilia beating frequency
Human neutrophil [2]; IL-13+HRV vs either alone
  neutrophil recruitment: additive increase in neutrophil recruitment
Human neutrophil [2]; IL-13-treated chips vs non-stimulated chips
  neutrophil recruitment: increased neutrophil recruitment
Goblet cells; IL-13 100 ng/ml, 7 days, endothelial channel
  goblet cell hyperplasia: induced goblet cell hyperplasia
[3]; apical/basal secretions, 24-72 h post infection
  epithelial interferon response after HRV-16 infection: impairs epithelial interferon response; also recorded: reduces HRV16-induced interferon response
[3]; over 3 days (72 hours) post HRV16 infection
  kinetic profile of IFN Lambda 1, CXCL10 and IL-6 secretion: inhibits secretion of IFN Lambda 1, CXCL10 and IL-6
[3]; prior stimulation with IL-13, 24, 48, 72 h post infection
  HRV16-induced IL-6 secretion: inhibited
Endothelial cells; IL-13 100 ng/mL, 48 hours
  adhesion molecule (ICAM-1, VCAM-1, VE-Cadherin) protein expression, immunostaining: increased adhesion molecule expression
Endothelial cells; IL-13 treatment
  adhesion protein gene expression in endothelial cells (fold over non-treated): up regulates adhesion proteins

## CC[C@@H](Nc1c(Nc2cccc(C(=O)N(C)C)c2O)c(=O)c1=O)c1ccc(C)o1 [MK-7123]
Human neutrophil [4]; 10 microliters of CXCR2 inhibitor added to the lower channel, vs no treatment
  adhesion of neutrophil cells on endothelial cell surfaces: reduced adhesion of neutrophil cells
Human neutrophil [4]; up to 600 seconds
  number of spots (neutrophil cells, N spots) counted over time (extravasation): remains about the same
Human neutrophil [4]; severe asthma chip, 10 μM
  neutrophil mobility (crawling) and trans-migration: reduces neutrophil mobility and limits trans-migration
Human neutrophil [2]; CXCR2 antagonist 10 μM
  inhibition of relevant physiological responses (neutrophil recruitment): greater than 90%
Human neutrophil [2]; HRV-16 infections, with or without IL-13 stimulation
  neutrophil attachment in the lower channel: reduced neutrophil attachment
Human neutrophil [2]; MK-7123 10 microM, three stimulation conditions (HRV-16, IL-13, IL-13+HRV)
  neutrophil recruitment: inhibits neutrophil recruitment; also recorded: significantly reduced neutrophil recruitment
Human neutrophil [2]; cells stimulated with IL-13 alone
  neutrophil attachment in the lower channel: increased attachment

## C[C@@H]1CCN(C(=O)CC#N)C[C@@H]1N(C)c1ncnc2[nH]ccc12 [Tofacitinib]
Goblet cells; IL-13+Tofacitinib
  effect on IL-13 induced goblet cell hyperplasia: inhibited

## C[C@@H](O)[C@H]1C(=O)N2C(C(=O)O)=C(SCCN=CN)C[C@H]12 [Imipenem]
P. aeruginosa
  permeability of airway cells to imipenem: impermeable
